Source: ChEMBL document CHEMBL1151091, “Aminomethylthiophene-2-carboxylic acids as dipeptide mimetic in new growth hormone secretagogues” (Bioorg Med Chem Lett, 1997)
pEC50: −log10 of the molar value. Square brackets hold non-standard residues; d marks the D form. Peptide text beside a SMILES is read from it. d2Nal = N[C@H](Cc1ccc2ccccc2c1)C(=O)O; 3Amb = NCc1cccc(C(=O)O)c1

Species on record: Rattus norvegicus
Experiment: In vitro release of growth hormone by rat pituitary assay
Format: functional

SMILES	pEC50
NCCCC[C@H](NC(=O)[C@@H](Cc1ccccc1)NC(=O)[C@@H](Cc1ccc2ccccc2c1)NC(=O)c1ccc(CN)s1)C(N)=O	6.68
NCCCC[C@H](NC(=O)[C@@H](Cc1ccccc1)NC(=O)[C@@H](Cc1ccc2ccccc2c1)NC(=O)c1ccccc1CN)C(N)=O	7.07
NCCCC[C@H](NC(=O)[C@@H](Cc1ccccc1)NC(=O)[C@@H](Cc1ccc2ccccc2c1)NC(=O)c1cc(CN)cs1)C(N)=O	6.17
C[C@H](N)C(=O)N[C@@H](Cc1c[nH]cn1)C(=O)N[C@H](Cc1ccc2ccccc2c1)C(=O)N[C@H](Cc1ccccc1)C(=O)N[C@@H](CCCCN)C(N)=O	8.22
NCCCC[C@H](NC(=O)[C@@H](Cc1ccccc1)NC(=O)[C@@H](Cc1ccc2ccccc2c1)NC(=O)c1sccc1CN)C(N)=O	7.57
NCCCC[C@H](NC(=O)[C@@H](Cc1ccccc1)NC(=O)[C@@H](Cc1ccc2ccccc2c1)NC(=O)c1cccc(CN)c1)C(N)=O (H-[3Amb][d2Nal][dF]K-NH2)	8.15
